Molecules are shown by their SMILES.

Data on 5 compounds can be found in ChEMBL document CHEMBL5465560, “Selectivity Literature for EUbOPEN Chemogenomic Library” (2024).

Data set [1] addresses Ephrin type-A receptor 4 (Homo sapiens, UniProt P54764). The data set can be described thus: Selectivity interaction (KinomeScan (DiscoverX)) EUB0000666a EPHA4. The note with it: at 10 µM.
Data set [2] has as its target T1, Serine/threonine-protein kinase Nek11 (Homo sapiens) (UniProt Q8NG66).
T1 sequence (whole entry): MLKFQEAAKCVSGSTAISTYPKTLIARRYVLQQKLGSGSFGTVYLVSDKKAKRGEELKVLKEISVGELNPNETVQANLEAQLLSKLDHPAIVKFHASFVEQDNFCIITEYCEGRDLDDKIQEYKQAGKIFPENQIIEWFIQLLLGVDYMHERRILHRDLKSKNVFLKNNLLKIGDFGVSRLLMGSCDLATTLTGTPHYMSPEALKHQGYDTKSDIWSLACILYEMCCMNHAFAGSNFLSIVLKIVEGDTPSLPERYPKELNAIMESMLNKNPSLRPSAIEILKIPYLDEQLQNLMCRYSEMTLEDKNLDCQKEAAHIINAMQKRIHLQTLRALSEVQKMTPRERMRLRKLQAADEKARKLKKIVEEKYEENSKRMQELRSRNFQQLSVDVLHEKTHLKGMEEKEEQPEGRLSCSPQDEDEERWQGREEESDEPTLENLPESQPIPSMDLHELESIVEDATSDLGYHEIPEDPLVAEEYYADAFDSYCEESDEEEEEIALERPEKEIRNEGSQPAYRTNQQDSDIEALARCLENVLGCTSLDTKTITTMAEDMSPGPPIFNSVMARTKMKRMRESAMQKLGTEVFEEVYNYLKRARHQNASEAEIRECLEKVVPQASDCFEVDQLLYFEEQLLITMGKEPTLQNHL
The experiment in a line: Selectivity interaction (KinomeScan (DiscoverX)) EUB0001619a NEK11. The following applies: at 1 µM.

The target in data set [3] is T2, Serine/threonine-protein kinase 3 (Homo sapiens) (UniProt Q13188).
T2 sequence (whole entry): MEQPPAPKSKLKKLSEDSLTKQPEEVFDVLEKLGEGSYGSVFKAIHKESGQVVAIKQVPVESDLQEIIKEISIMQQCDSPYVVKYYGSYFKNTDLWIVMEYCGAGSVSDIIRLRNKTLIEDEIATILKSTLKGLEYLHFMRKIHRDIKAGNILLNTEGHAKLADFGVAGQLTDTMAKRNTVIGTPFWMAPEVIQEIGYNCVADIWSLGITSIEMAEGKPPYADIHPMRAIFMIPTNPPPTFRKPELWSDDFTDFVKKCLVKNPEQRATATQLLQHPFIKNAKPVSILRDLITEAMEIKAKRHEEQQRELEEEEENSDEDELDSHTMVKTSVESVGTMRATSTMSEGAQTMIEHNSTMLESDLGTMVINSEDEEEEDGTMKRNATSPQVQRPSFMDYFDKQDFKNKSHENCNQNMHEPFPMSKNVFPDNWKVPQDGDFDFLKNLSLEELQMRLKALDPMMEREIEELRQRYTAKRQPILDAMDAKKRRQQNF
The experiment in a line: Selectivity interaction (ActivX KiNativ screen (ex vivo kinase selectivity in human PBMCs)) EUB0001619a STK3. The following applies: PBMC, at 1 µM. The format is cell-based.

Data set [4] concerns the target Amine oxidase [flavin-containing] B (Homo sapiens, UniProt P27338). The experiment in a line: Selectivity interaction (Eurofins safety panel) EUB0001564a MAOB. The note with it: at 10 µM.
The target of data set [5] is T3, Mitogen-activated protein kinase kinase kinase 12 (Homo sapiens) (UniProt Q12852).
T3 sequence (whole entry): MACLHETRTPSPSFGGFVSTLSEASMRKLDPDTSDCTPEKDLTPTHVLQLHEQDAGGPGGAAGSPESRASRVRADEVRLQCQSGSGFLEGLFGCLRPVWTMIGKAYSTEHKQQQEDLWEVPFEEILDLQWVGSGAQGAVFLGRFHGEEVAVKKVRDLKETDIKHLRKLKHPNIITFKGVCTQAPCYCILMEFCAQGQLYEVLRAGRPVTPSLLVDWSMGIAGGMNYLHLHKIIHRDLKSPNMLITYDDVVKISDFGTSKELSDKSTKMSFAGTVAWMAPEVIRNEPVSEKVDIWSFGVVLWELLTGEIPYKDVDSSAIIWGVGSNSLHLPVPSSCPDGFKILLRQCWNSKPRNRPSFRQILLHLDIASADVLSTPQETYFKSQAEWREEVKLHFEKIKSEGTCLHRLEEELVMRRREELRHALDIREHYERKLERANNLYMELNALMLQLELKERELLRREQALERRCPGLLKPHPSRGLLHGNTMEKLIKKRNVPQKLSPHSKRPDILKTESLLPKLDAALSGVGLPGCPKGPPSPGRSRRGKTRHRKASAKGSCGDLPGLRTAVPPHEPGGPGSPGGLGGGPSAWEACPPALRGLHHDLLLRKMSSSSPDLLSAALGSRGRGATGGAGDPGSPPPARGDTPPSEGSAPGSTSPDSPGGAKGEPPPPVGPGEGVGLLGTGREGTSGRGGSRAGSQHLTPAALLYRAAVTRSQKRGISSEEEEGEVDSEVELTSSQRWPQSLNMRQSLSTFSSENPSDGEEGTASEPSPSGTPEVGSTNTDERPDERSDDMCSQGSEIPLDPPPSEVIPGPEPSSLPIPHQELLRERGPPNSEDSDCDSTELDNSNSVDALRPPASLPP
The data set can be described thus: Selectivity interaction (KinomeScan (DiscoverX)) EUB0001049a MAP3K12. The following applies: at 1 µM.

Data set [6] concerns the target T4, Inhibitor of nuclear factor kappa-B kinase subunit epsilon (Homo sapiens) (UniProt Q14164).
T4 sequence (whole entry): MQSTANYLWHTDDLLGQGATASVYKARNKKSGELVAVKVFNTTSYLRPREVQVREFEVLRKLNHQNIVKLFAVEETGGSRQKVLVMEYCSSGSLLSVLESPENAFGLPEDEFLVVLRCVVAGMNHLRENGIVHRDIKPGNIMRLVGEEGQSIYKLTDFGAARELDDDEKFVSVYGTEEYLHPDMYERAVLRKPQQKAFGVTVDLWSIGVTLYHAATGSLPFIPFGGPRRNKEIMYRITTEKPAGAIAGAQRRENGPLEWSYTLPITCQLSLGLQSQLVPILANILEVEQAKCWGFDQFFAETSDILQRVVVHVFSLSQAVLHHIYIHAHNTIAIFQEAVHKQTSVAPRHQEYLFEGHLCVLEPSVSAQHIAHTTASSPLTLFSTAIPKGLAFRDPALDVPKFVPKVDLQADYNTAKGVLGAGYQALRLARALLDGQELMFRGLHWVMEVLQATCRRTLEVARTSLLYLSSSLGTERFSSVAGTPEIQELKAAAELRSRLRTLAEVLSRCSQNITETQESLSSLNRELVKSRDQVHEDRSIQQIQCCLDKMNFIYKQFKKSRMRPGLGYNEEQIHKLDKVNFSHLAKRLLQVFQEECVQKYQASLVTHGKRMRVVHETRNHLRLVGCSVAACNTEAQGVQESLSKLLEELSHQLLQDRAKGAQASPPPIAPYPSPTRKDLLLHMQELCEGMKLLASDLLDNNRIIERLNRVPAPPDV
The experiment in a line: Selectivity interaction (ProQinase) EUB0000171b IKBKE.

Chain of Amine oxidase [flavin-containing] B (P27338 whole entry): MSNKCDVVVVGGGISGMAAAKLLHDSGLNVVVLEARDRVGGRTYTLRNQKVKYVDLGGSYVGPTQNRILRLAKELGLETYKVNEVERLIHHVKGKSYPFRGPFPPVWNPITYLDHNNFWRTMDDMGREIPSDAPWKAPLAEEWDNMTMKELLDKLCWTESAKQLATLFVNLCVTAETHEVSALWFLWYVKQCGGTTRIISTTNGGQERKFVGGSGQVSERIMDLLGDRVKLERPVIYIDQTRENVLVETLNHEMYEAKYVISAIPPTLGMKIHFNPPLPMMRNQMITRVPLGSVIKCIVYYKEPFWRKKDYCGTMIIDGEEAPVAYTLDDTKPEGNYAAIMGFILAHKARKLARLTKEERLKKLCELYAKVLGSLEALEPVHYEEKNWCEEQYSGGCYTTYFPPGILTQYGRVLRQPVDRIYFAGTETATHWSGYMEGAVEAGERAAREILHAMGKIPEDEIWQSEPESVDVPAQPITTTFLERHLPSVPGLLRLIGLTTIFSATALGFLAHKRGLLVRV
Chain of Ephrin type-A receptor 4 (P54764 whole entry): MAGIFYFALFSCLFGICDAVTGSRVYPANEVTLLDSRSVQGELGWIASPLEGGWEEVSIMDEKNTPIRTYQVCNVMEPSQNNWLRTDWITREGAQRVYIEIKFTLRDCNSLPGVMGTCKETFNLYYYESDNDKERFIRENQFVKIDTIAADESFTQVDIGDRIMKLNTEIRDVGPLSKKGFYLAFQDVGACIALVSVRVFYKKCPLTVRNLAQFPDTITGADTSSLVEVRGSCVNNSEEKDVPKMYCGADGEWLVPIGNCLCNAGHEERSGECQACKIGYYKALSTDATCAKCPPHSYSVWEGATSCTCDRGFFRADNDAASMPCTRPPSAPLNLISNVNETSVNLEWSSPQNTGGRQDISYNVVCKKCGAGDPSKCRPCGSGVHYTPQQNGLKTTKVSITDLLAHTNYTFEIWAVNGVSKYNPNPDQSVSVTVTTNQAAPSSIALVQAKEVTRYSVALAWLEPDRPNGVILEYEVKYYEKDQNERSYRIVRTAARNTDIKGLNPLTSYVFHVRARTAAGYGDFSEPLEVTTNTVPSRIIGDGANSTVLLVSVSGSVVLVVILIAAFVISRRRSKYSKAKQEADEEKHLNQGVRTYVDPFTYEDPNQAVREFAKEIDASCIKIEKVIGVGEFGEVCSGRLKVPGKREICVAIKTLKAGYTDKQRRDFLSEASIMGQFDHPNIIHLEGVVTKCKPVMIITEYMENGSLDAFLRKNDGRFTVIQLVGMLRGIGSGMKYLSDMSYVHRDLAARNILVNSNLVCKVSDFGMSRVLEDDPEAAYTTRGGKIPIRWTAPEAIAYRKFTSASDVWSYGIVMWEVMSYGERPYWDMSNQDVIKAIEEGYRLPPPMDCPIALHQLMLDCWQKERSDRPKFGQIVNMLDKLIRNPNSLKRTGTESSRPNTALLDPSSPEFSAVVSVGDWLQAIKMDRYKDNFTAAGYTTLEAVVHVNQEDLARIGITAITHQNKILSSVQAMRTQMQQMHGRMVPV

On to `O=C(NOC[C@H](O)CO)c1ccc(F)c(F)c1Nc1ccc(I)cc1F`, for which, in data set [1], the % of control stood at 100%.

`N#Cc1cccc(-c2c[nH]c3ncnc(N4CCOCC4)c23)c1` showed a % of control in data set [2] of 100%. In data set [3], the % of inhibition came out at 69%.

Turning to `CC[C@@H](Nc1c(C#N)c(-c2ccc(-c3cccc(C)c3F)cc2)nc2cnccc12)C(=O)O` [BAY-091], the “% of inhibition” value in data set [4] stood at 81%.

With `COc1cc(Nc2nc(C)cc(-c3cnn4nc(OC)ccc34)n2)cc(C(F)(F)F)c1`, the % of control in data set [5] was determined as 92%.

In the case of `C=CC(=O)Nc1cccc(C(=O)Nc2ccc(Nc3cc(-c4[nH]c(SC)nc4C)ccn3)cc2)c1`, the results for the % of control in data set [6] (at 1 µM) and in data set [6] (at 5 µM) were 88% and 70%, respectively.
